Measurements: patent US12083141B2, “Treatment of hyperglycemia with solute carrier family 39 member 5 (SLC39A5) inhibitors” (Regeneron Pharmaceuticals, Inc., priority 2019, dated 2024)

How the values were obtained:
[1] = tested on: human primary hepatocytes; assay: Zinc activation of LKB1/AMPK and AKT signaling in primary hepatocytes; type: cell-based; conditions: acute, dose dependent
Method: Liver protein was extracted using RIPA buffer (Cell signaling technology, Cat #9806) with Halt Protease & Phosphatase Inhibitor Cocktail (ThermoFisher Scientific, Cat #78440). Five microgram protein of each sample were separated in NuPAGE 4-12% Bis-Tris protein gel (Invitrogen, Cat #WG1403BOX), and transferred to nitrocellulose membrane using Trans-Blot® Turbo™ Transfer System (BioRad). Blotting was performed using the following Cell Signaling Technology antibodies: Phospho-AMPKα (Thr172) (Cell signaling technology, Cat #2535), AMPKα (Cell signaling technology, Cat #5831), β-Actin (Sigma, Cat #5441), Phospho-AKT (Ser473) (Cell signaling technology, Cat #4060), AKT (Cell signaling technology, Cat #9272), Phospho-LKB1 (Ser428) (Cell signaling technology, Cat #3482), LKB1 (Cell signaling technology, Cat #3050), rabbit IgG conjugated to horseradish peroxidase (HRP) (Cell signaling technology, Cat #7074) and mouse IgG conjugated to HRP (Cell signaling technology, Cat #7076). Blots were developed using SuperSignal West Femto Substrate (ThermoFisher Scientific, Cat #34095). Signals were captured using ImageQuant LAS4000 (GE Healthcare).

[2] = tested on: serine/threonine phosphatase; assay: Ex vivo serine/threonine phosphatase activity in SLC39A5 loss-of-function mice, diet zinc supplementation; conditions: high fat diets supplemented with different zinc concentrations, ex vivo assay
[3] = tested on: serine/threonine phosphatase; assay: Dependence of serine/threonine phosphatase activity on zinc concentration; type: biochemical; conditions: increased concentrations of zinc
[4] = tested on: human hepatoma HepG2 cells; assay: Zinc activation of LKB1/AMPK and AKT signaling in HepG2 cells; type: cell-based; conditions: acute, dose dependent
tyrosine phosphatase [5] = assay: Dependence of tyrosine phosphatase activity on zinc concentration; type: biochemical; conditions: increased concentrations of zinc
tyrosine phosphatase [6] = assay: Ex vivo tyrosine phosphatase activity in SLC39A5 loss-of-function mice, diet zinc supplementation; conditions: high fat diets supplemented with different zinc concentrations, ex vivo assay
mice fed high fat diet = assay: Zinc supplementation of high fat diet in mice (DIO); type: in vivo; conditions: for hepatic zinc levels: zinc-supplemented diet
Method: Four groups of 6-week old male mice (16 per group) were fed either normal chow or high fat diets supplemented with different zinc concentrations for either 4 or 6 weeks (FIG. 2A). The levels of zinc were analyzed after 4 weeks (FIGS. 2B and 2C) and after 6 weeks (FIGS. 2D and 2E).

## [Zn] [zinc]
[1]
  LKB1/AMPK and AKT signaling pathways: acutely activates LKB1/AMPK and AKT signaling pathways in dose dependent manner
[2]
  rescue of serine/threonine phosphatase inhibition caused by loss of SLC39A5: did not rescue the inhibition
[3]
  serine/threonine phosphatase activity: suppressed the activity
[4]
  LKB1/AMPK and AKT signaling pathways: acutely activates LKB1/AMPK and AKT signaling pathways in dose dependent manner
Tyrosine phosphatase [5]
  tyrosine phosphatase activity: suppressed the activity
Tyrosine phosphatase [6]
  rescue of tyrosine phosphatase inhibition caused by loss of SLC39A5: did not rescue the inhibition
Mice fed high fat diet; high fat diet supplemented with zinc
  fat accumulation in liver (microscopic analysis): reverses fat accumulation in liver
Mice fed high fat diet; high fat diet with increasing diet zinc concentration, 4 or 6 weeks
  intravenous glucose tolerance test, blood glucose: mitigated blood glucose increase mediated by high fat diet
Mice fed high fat diet; high fat diet with increasing diet zinc concentration, effect not statistically significant
  intravenous glucose tolerance test, area under the curve: reduced area under the curve
Mice fed high fat diet; male mice, diets supplemented with different zinc concentrations, 4 and 6 weeks
  serum zinc levels: no significant change
Mice fed high fat diet; male mice, after 4 weeks
  hepatic zinc levels: no significant change
Mice fed high fat diet; male mice, after 6 weeks, correlated with level of zinc in diet
  hepatic zinc levels: statistically significant increase
